Reference: patent US20150209426A1, “TREATMENT OF CANCER” (Boehringer Ingelheim International GmbH, priority 2014, published 2015)

Key:
[1] = test system: MCF7aro cells; experiment: Cell proliferation assay of adherently growing MCF7aro breast cancer cells (AlamarBlue cell viability); format: cell-based, human; conditions: 6 days of incubation, mean of three independent experiments, everolimus up to 50 nM, exemestane up to 200 nM, triple combination with fixed 10 nM IGF Ab 60833
Method: Three independent experiments were conducted to determine the anti-proliferative effect of IGF Ab 60833 in combination with everolimus and exemestane in MCF7aro breast cancer cells. Cell proliferation and viability following 6 days of incubation with test compounds was determined using an assay that monitors the reducing environment of the living cells in each assay well.
For cell proliferation assays and Western Blot analysis the cells were steroid-deprived for 72 h by cultivation in starvation medium (MEM alpha without phenol red, supplemented with 10% charcoal stripped FBS, 2 mM GlutaMAX and 1 mM sodium pyruvate). […]
The final concentration of the solvent DMSO in the test wells was 0.1%. Everolimus and exemestane were tested at 5 concentrations, each measured in duplicate wells, as single agents or in combination.
After 2 days of incubation with test compounds in a humidified incubator at 37° C. and 5% CO2, medium was changed to fresh assay medium and compounds were added again. […] Total fluorescence intensity of each well was then measured in a Wallac VICTOR Multilabel Counter using an excitation wavelength of 544 nm and measuring emission at 590 nm.
At the time of test compound addition, “time zero” (t=0) untreated cell plates were stained with AlamarBlue® Cell Viability Reagent. […] After incubation for 6 hours at 37° C. and 5% CO2, total fluorescence intensity was measured. […]

[2] = test system: cleaved PARP in MCF7aro cells; experiment: Cleaved PARP (apoptosis) in MCF7aro cell lysates by Western blot and MSD Apoptosis Panel; format: cell-based, human; conditions: 72 h, 1 μM of each agent, versus vehicle-treated control
Method: 1.5×10^6 MCF7aro cells were plated in 10 cm dishes in starvation medium (MEM alpha without phenol red, supplemented with 10% charcoal stripped FBS, 2 mM GlutaMAX and 1 mM sodium pyruvate). After overnight incubation, medium was changed to assay medium (MEM alpha without phenol red, supplemented with 10% charcoal stripped FBS, 2 mM GlutaMAX, 1 mM sodium pyruvate and 1 nM androstenedione) and the cells were treated with vehicle (DMSO), or 1 μM of IGF Ab 60833, or 1 μM exemestane, or 1 μM everolimus, or a combination of exemestane and everolimus, or a combination of all three inhibitors. At 72 h post treatment, the cells were lysed on ice with MSD Tris Lysis Buffer containing 20 mM Tris pH 7.5, 150 mM NaCl, 1 mM EDTA, 1 mM EGTA, 1% Triton X-100, completed with protease and phosphatase inhibitor cocktails. Prior to use, freshly prepared 2 mM PMSF was added to the buffer.
(§1) Total protein was isolated and protein concentration was quantified by Bradford protein assay according to the manufacturer's instructions. […]
Cells lysates were prepared according to the Meso Scale Discovery cell lysis protocol. 20 μg of clarified lysate was analyzed in duplicates with MSD Apoptosis Panel Whole Cell Lysate Kit, measuring cleaved PARP signals, according to the manufacturer's instructions. Plates were read on the SECTOR Imager 6000 plate reader.

[3] = test system: advanced hormone receptor-positive, HER2-negative breast cancer; conditions: cited from earlier work
[4] = test system: AKT and S6 phosphorylation in MCF7aro cells; experiment: Western blot assessment of AKT and S6 phosphorylation status in MCF7aro cell lysates; format: cell-based, human; conditions: 24 hours, 100 nM IGF Ab 60833, 0.32 nM everolimus, versus vehicle (DMSO) control
Method: 1.8×10^6 MCF7aro cells were plated in 10 cm dishes in starvation medium (MEM alpha without phenol red, supplemented with 10% charcoal stripped FBS, 2 mM GlutaMAX and […]). After overnight incubation, medium was changed to assay medium (MEM alpha without phenol red, supplemented with 10% charcoal stripped FBS, 2 mM GlutaMAX, 1 mM sodium pyruvate and 1 nM androstenedione) and the cells were treated with 100 nM of IGF Ab 60833 or 0.32 nM of everolimus or a combination of antibody and mTORC1 inhibitor. As a control, cells were treated with vehicle (DMSO) only. At 24 h post treatment, the cells were lysed on ice with MSD Tris Lysis Buffer containing 20 mM Tris pH 7.5, 150 mM NaCl, 1 mM EDTA, 1 mM EGTA, 1% Triton X-100, completed with protease and phosphatase inhibitor cocktails. Prior to use, freshly prepared 2 mM PMSF was added to the buffer.
as §1
The effect of IGF Ab 60833 and everolimus, as single agents and in combination, on the phosphorylation of AKT at serine 473 (pAKT S473) and threonine 308 (pAKT T308), and of S6 (pS6) at serine 235/236 was monitored by Western blot analysis of MCF7aro cell lysates prepared 24 hours post treatment.

[5] = test system: hormone refractory, hormone receptor-positive, HER2-negative metastatic breast cancer; conditions: hormone refractory HR+, HER2-negative metastatic breast cancer patients; cited from earlier work

SMILES	maximal mean CGI (cell growth inhibition) [1] [%]	levels of cleaved PARP (marker for apoptosis) [2]	median progression-free survival ([3]; by local investigator assessment) [months]	overall response rate ([3]; in vivo) [%]	pAKT S473 and T308 levels by Western blot [4]	pS6 (S235/236) signal by Western blot [4]	time to progression (PFS) [5] [months]
C=C1C[C@@H]2[C@H](CC[C@]3(C)C(=O)CC[C@@H]23)[C@@]2(C)C=CC(=O)C=C12 [exemestane, 6-Methylideneandrosta-1,4-diene-3,17-dione]	60	comparable to or only marginally higher than the level in the vehicle-treated control	3.2	1.7			
CO[C@H]1C[C@@H]2CC[C@@H](C)[C@@](O)(O2)C(=O)C(=O)N2CCCC[C@H]2C(=O)O[C@H]([C@H](C)C[C@@H]2CC[C@@H](OCCO)[C@H](OC)C2)CC(=O)[C@H](C)/C=C(\C)[C@@H](O)[C@@H](OC)C(=O)[C@H](C)C[C@H](C)/C=C/C=C/C=C/1C [everolimus]	47	comparable to or only marginally higher than the level in the vehicle-treated control			increased compared to the vehicle (DMSO)-treated control	reduced pS6 signal	
CC/C(=C(\c1ccccc1)c1ccc(OCCN(C)C)cc1)c1ccccc1 [tamoxifen]							4.5
